PubChem BioAssay AID2305 (GlaxoSmithKline (GSK), 2010)
“And” between values parts separate entries of the source, which are not always exact repeats. Identical values can stand only once.

Tested on: P. falciparum 3D7 growth, pLDH absorbance
Assay: blood-stage malaria parasite growth potency – strain 3D7, dose response (AID 2305)

SMILES	IC50
CC[C@H]1CN2CC[C@H]1C[C@H]2[C@H](O)c1cc(-c2ccc(SC)cc2)nc2ccc(OC)cc12	60 nM
Cc1cccc2[nH]c(-c3ccc(-c4cccc(NC(=O)Nc5ccsc5)c4)s3)nc12	540 nM
CC(=O)Nc1ccc(OCCCCCOc2ccc(NC(C)=O)cc2Cl)c(Cl)c1	830 nM
CN(c1cc(NC(=O)c2ccc(F)cc2)ccn1)C1CCN(Cc2cccc(F)c2)CC1	490 nM
COc1cc(/C=C/C(=O)NCC(CCNc2cc(=O)c3ccccc3[nH]2)NCc2cc(Br)cc(Br)c2)cc(OC)c1 (stereo not drawn)	910 nM
CCN(CCCN1CCCCC1)c1cc(C)nc(Nc2cccc(C(F)(F)F)c2)n1	290 nM
Cc1nn(-c2ccccc2)c2c1C(c1ccc(C(C)C)cc1)N1C(=N2)N(Cc2ccccc2)c2ccccc21 (stereo not drawn)	780 nM
NCC1CCCN1Cc1cccc(-c2ccc(-c3nc4ccc(C(F)(F)F)cc4[nH]3)cc2)c1 (stereo not drawn)	780 nM
Cc1cc(NCCC(=O)Nc2ccccc2)nc(NCC2CCCCC2)n1	840 nM
C=C[C@H]1CN2CC[C@H]1C[C@H]2[C@H](OS(=O)(=O)O)c1ccnc2ccccc12	620 nM
Cc1nc(N)nc(N)c1-c1cc(Cl)c(N)c(Cl)c1	800 nM
Cc1ccc(-n2nc3ccc(NC(=O)c4ccc([N+](=O)[O-])o4)cc3n2)cc1C	400 nM
CC(C)COc1ccc(Cl)cc1Cc1nc(-c2nc3ccc(CN(C)C)cc3[nH]2)co1	710 nM
O=C(/C=C/c1ccc(Cl)c(Cl)c1)NCCCCCCN1CCN(C(=O)Nc2ccc(Cl)c(C(F)(F)F)c2)CC1	530 nM
CC[C@H]1CN2CC[C@@H]1C[C@H]2[C@H](O)c1cc(-c2cccnc2)nc2ccc(OC)cc12	40 nM
Cc1[nH]c2cc(F)ccc2c1C1=CCN(CCCCC2(C)C(=O)Nc3ccccc32)CC1 (stereo not drawn)	290 nM
COc1cc(C)nc2ccc(NC(=O)Nc3ccc([N+](=O)[O-])cc3C)cc12	600 nM
COc1ccc2nccc([C@@H](O)CN3CCC(NCc4cc5c(Cl)cccc5[nH]4)CC3)c2c1	160 nM
O=C(Nc1ccc(-c2cccc(-c3nc4ccc(C(F)(F)F)cc4[nH]3)c2)cc1)c1ccc(=O)[nH]n1	1070 nM
Cc1cccc2[nH]c(-c3ccc(-c4ccc(CNCc5ccccc5)cc4)cc3)nc12	510 nM
OC(CNCc1cccc(Oc2ccc(Cl)cc2)c1)c1cc(C(F)(F)F)cc(C(F)(F)F)c1 (stereo not drawn)	260 nM
COc1ccc(-c2csc3ncnc(Cl)c23)cc1	780 nM
COc1ccc2nccc([C@@H](O)CN3CCC(NC(=O)/C=C/c4cccc(-c5ccccc5)c4)CC3)c2c1	250 nM
Cc1[nH]c(C)c(-c2ccc(/C=C/c3ccccn3)cc2)c(=O)c1Cl	520 nM
O=C(c1cc(C(F)(F)F)cc(C(F)(F)F)c1)N1CC[C@H](CCN2CCC3(CC2)C(=O)NCN3c2ccccc2)C[C@H]1Cc1ccc(Cl)c(Cl)c1	660 nM

SMILES	IC50
COc1ccc2ncc(F)c(NC(=O)C3CCC(NCc4cc5cc(F)cc(F)c5[nH]4)CC3)c2n1 (stereo not drawn)	1090 nM
CCc1cc(I)c2c(c1)C(NCCCNc1cc(=O)c3ccccc3[nH]1)CCN2 (stereo not drawn)	890 nM
CC(C)(C)c1ccc(CN2CCCCC(NC(=O)c3cc(-c4cccc(Cl)c4)cs3)C2)cc1 (stereo not drawn)	1000 nM
O=C(CCCc1ccccc1)Nc1cccc(N2CCC(N3CCN(c4ccccc4O)CC3)CC2)c1	790 nM
CN(C)CCN1CCN(Cc2cccc(-c3csc(-c4nc5ccccc5[nH]4)c3)c2)CC1	400 nM
OC(CNCc1ccccc1)c1cc(OCc2ccccc2)cc(OCc2ccccc2)c1 (stereo not drawn)	1000 nM
Cc1ccc2nc(-c3ccc(C=CC(=O)NCc4ccc(Cl)c(Cl)c4)cc3)[nH]c2c1	900 nM
CCOC(=O)CCCCOc1c(OC)cc(Cc2cnc(N)nc2N)cc1OC	30 nM
CCOC(=O)c1cc(C(=O)NCCCCN2CCC(c3ccc(CC)cc3OCC)CC2)ccc1-c1ccc(C(F)(F)F)cc1	610 nM
C[C@@H](Oc1cc(-n2cnc3ccc(OCC4CCN(S(C)(=O)=O)CC4)cc32)sc1C(N)=O)c1ccccc1C(F)(F)F	1020 nM
COc1cccc(CN2CCN(C(c3ccccc3)c3ccccc3)CC2)c1O	780 nM
CC(=O)Nc1ccc2[nH]cc(C3CCN(CCC4CCN(C(=O)/C=C/c5ccc(Cl)c(Cl)c5)CC4)CC3)c2c1	780 nM
CN(Cc1cccc(O)c1)C1CCN(c2cc(NC(=O)c3ccc(F)cc3)ccn2)CC1	960 nM
O=C(Nc1ccc(Cl)cc1)c1cc(Cl)cc2[nH]c(C(F)(F)F)nc12	130 nM
CNCCNCc1ccc(-c2cccc(-c3nc4ccc(C(F)(F)F)cc4[nH]3)c2)cc1	630 nM
CCOC(C(=O)OCC1CCCN1C)(c1ccccc1)c1ccccc1 (stereo not drawn)	860 nM
CC(C)N1CCN(C(=O)c2ccc(CNCCCN3CCN(c4cccc(Cl)c4Cl)CC3)o2)CC1	740 nM
O=C(NCCCCCN1CCCN(C(=O)Nc2ccc(Cl)c(C(F)(F)F)c2)CC1)[C@@H]1C[C@H]1c1ccc(Cl)c(Cl)c1	850 nM
N#Cc1ccc(N2C[C@@H](OCc3ccccc3)C[C@H]2C(=O)NCCC(c2ccccc2)c2ccccc2)c2ccccc12	860 nM
Cc1c(NCCCNCc2cc(Cl)cc(Cl)c2Cl)[nH]c2ccccc2c1=O	310 nM
Fc1cccc(C=NNc2ccnc3ccc(C(F)(F)F)cc23)c1	730 nM
O=C(O)c1cc(C(F)(F)F)co1	830 nM
Nc1nc(N)c2cc(S(=O)(=O)c3ccc4ccccc4c3)ccc2n1	40 nM
Cc1cc(NN=Cc2ccccn2)c2cc(F)ccc2n1	760 nM
Clc1ccccc1/C=C/c1cncnc1Nc1ccc2nc(Cc3ccccc3)[nH]c2c1	920 nM

SMILES	IC50
Cc1cc(Nc2ccncc2)n2nc(C)c(-c3ccc(Cl)cc3)c2n1	160 nM
O=C(C=C1c2ccccc2-c2ccccc21)NC1CCC(CN2CCC(c3c[nH]c4ccccc34)CC2)CC1 (stereo not drawn)	790 nM and 700 nM
Cc1cc(N2CCCC2)nc(Nc2ccc(NC(=O)Cc3ccccc3)cc2)n1	610 nM
CC(C)c1ccc(NC(=O)c2ccc(C(=O)NC3CCN(Cc4ccccc4)CC3)cc2)cc1	980 nM
CC(C)Oc1cc2c(cc1NS(=O)(=O)c1ccc(-c3cccs3)cc1)CCN(C)CC2	960 nM
Cc1nc2c(c(O)c1Cl)-c1ccc(Oc3cccc(C(F)(F)F)c3)cc1C2=O	40 nM
O=C(NC1CCN(Cc2ccsc2)CC1)c1ccc(-c2cccc(C(F)(F)F)c2)s1	1440 nM
COc1cccc(-c2cc3nc4c(c(NCCCn5ccnc5)n3n2)CCCC4)c1	680 nM
CCC(COCc1ccc(Cl)cc1)N(C)CCN(C)C(CC)COCc1ccc(Cl)cc1 (stereo not drawn)	1060 nM
CC(=O)c1cccc(S(=O)(=O)NCCCNc2nc3cc(C)cc(C)c3cc2C#N)c1	910 nM
CCc1cc2c3c(N)nc(N)nc3ccc2n1C(CC)CC	60 nM
O=C(Nc1cccc(-c2cccc(-c3nc4ccc(C(F)(F)F)cc4[nH]3)c2)c1)c1cccnc1Cl	660 nM
COc1ccc2nccc([C@@H](O)CN3CCC(NCc4ccc5c(c4)sc(=O)n5C)CC3)c2c1	260 nM
COc1cccc(C(=O)Nc2ccc(Nc3nc(C)cc(N4CCCCC4)n3)cc2)c1OC	1020 nM
Cc1ccc2c(c1)nc(N)n2C[C@H](O)c1ccccc1	580 nM
Cc1ccc(O)c(-c2cc(C(=O)Nc3ccc(S(=O)(=O)N4CCCC(C)C4)cc3)[nH]n2)c1 (stereo not drawn)	710 nM
O=C(/C=C/c1ccsc1)N1CCC(CCN2CCC(c3c[nH]c4ccccc34)CC2)CC1	910 nM
CC(C)CNC(=O)c1cncc(-c2ccc(CNCCCc3ccccc3)cc2)c1	770 nM
O=C(Nc1ccc(Cl)cc1)c1ccc(CN2CCCN(Cc3ccsc3)CC2)cc1	860 nM
COc1ccc(NC(=O)[C@H](Cc2ccccc2)Nc2cc(C)nc(NCCc3cccs3)n2)cc1	750 nM
CC1(C)[C@H]2CC[C@@H](CNc3nc(NCC(=O)Nc4ccc5ccccc5c4)nc(N4CCC(N5CCCC5)CC4)n3)[C@@H]1C2	1190 nM
Cc1cnccc1/C=C/c1cccc(OCCN2CCc3ccc(S(C)(=O)=O)cc3CC2)c1	270 nM
Cc1ccc(NC(=O)c2ccc(CN3CCCN(CC4CCCCC4)CC3)cc2)cc1C	1020 nM
COc1ccc(-c2nc(NC(=O)Cc3coc4cc(OC)ccc34)sc2C)cc1	610 nM
Cc1cc(Br)cnc1CCCCN=C1NC(=O)CN1C	370 nM

SMILES	IC50
COc1ccc(NC(=O)C2c3ccccc3C(=O)N(CC(C)C)C2c2cccs2)cc1OC (stereo not drawn)	200 nM
CC[C@H](C)CNC(=O)c1cncc(-c2ccc(CNCCOc3ccccc3)cc2)c1	1110 nM
CNC(=O)CC(=O)NCCc1ccc(Cl)cc1	810 nM
COc1cccc(CNC[C@@H](O)[C@H](Cc2ccccc2)NC(=O)c2cc(OC(C)C)cc(N3CCCCS3(=O)=O)c2)c1	730 nM
O=C(Nc1ccc(Cl)c(C(F)(F)F)c1)Nc1ccc(Cl)c(C(F)(F)F)c1	770 nM
COc1ccc(Nc2nc(NC3CCN(Cc4ccccc4)CC3)cc(-c3ccncc3)n2)cc1	990 nM
CCN(CC)CCCN1CCN(C(=O)c2cccc(-c3noc(C(F)(F)F)n3)c2)CC1	150 nM
COc1cc(Cc2cnc(N)nc2N)ccc1OCc1ccc(-c2csnn2)cc1	630 nM
N#Cc1ccc2[nH]cc(CN3CCC4(CC3)CN(CCNCc3ccccc3)C(=O)CO4)c2c1	760 nM
CCN(CC)CCN(Cc1ccc(-c2ccc(C(F)(F)F)cc2)cc1)C(=O)Cn1c(CCc2ccc(F)c(F)c2F)nc(=O)c2ccccc21	790 nM
CCCNCc1ccc(-c2ccc(CN(CC3CCCO3)C(=O)C3CC(=O)c4ccccc43)cc2)nc1 (stereo not drawn)	860 nM
COc1ccc(CNC(=O)c2cc3c(=O)n4ccccc4nc3n(CCc3ccccc3)c2=N)cc1	330 nM
O=C(Nc1cccc(CN2CCCN(Cc3ncc[nH]3)CC2)c1)c1ccc(Cl)c(Cl)c1	800 nM
CCN1CCN(c2cc(C)c3cc(NC(=O)c4cccc(C(F)(F)F)c4)ccc3n2)CC1	570 nM
CNCCCn1c(N(C)C)nc2cc(-n3cnc4cc(-c5ccc(Cl)cc5)sc4c3=O)ccc21	1140 nM
CC(=O)Nc1nc(-c2ccccc2)[nH]c1C(N)=O	250 nM
CN1CCN(CCCCCCNc2c3ccccc3nc3ccccc23)CC1	720 nM
CCCC1(NC[C@@H](O)[C@H](Cc2ccccc2)NC(=O)c2cc(NCC)cc(N3CCCCS3(=O)=O)c2)CCCC1	500 nM
CC1(C)N=C(N)NC(NOCc2ccc(Cl)c(Cl)c2)=N1	230 nM
O=C(NC1CC1)c1ccc(N2CCCCN2CCc2ccccc2)c(C(F)(F)F)c1	620 nM
CS(=O)(=O)NCCCNCc1cccc(-c2cccc(-c3nc4ccc(C(F)(F)F)cc4[nH]3)c2)c1	470 nM
CN(C)CCCNCc1ccc(-c2ccc(F)c(Cl)c2)o1	800 nM
CCCC1N=C(N)N=C(N)N1c1ccccc1 (stereo not drawn)	820 nM
